Results: US20250388574A1, “HETEROCYCLIC COMPOUNDS AS TRIGGERING RECEPTOR EXPRESSED ON MYELOID CELLS 2 AGONISTS AND METHODS OF USE” (AMGEN INC., priority 2020, published 2025)

Biological target: hTREM2 (Homo sapiens, UniProt Q9NZC2)
Assay: Phospho-Syk AlphaScreen/AlphaLISA assay in TREM2 and DAP12 overexpressing HEK293 cells (Example A1)
Assay type: cell-based
Set-up: expressed in transfected cells
Settings: HEK293 cells; for EC50: read-out: hTREM2 EC50
Procedure, shortened: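 Single-cell-cloned HEK293 stably overexpressing TREM2 and DAP12, plated 20,000 cells/well for 20 h, then exposed to compounds (1% DMSO) 45 min at room temperature. Lysates probed for phospho-Syk by AlphaLISA sandwich (anti-pSyk, biotinylated anti-Syk); signal normalized to percent of control (100 nM anti-TREM2 antibody vs isotype) and fitted by 4-parameter logistic.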

Chain of hTREM2 (Q9NZC2 19-230): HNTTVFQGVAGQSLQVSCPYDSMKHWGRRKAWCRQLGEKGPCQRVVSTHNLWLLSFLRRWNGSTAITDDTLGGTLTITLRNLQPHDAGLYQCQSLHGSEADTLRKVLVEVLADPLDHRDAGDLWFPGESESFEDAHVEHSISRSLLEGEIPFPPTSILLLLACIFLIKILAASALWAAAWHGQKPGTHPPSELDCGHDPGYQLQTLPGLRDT
Chain of hTREM2 (O43914 22-113 partner): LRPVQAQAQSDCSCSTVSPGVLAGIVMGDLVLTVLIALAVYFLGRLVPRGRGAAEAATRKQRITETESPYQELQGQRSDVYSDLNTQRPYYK

| Structure (SMILES) | Emax | EC50 |
| --- | --- | --- |
| Cc1nc2cc(N3CCO[C@H](c4ccc(OCC(F)(F)F)nc4)C3)nc(-c3ccc(Cl)cc3F)c2c(=O)n1C [Example 235, (R)-5-(4-chloro-2-fluorophenyl)-2,3-dimethyl-7-(2-(6-(2,2,2-trifluoroethoxy)pyridin-3-yl)morpholino)pyrido[4,3-d]pyrimidin-4(3H)-one] | ++++ (Emax>300) | 0.5 to 3 µM |
| Cc1nc2cc(N3CCO[C@@H](c4ccc(OCC(F)(F)F)nc4)C3)nc(-c3ccc(Cl)cc3F)c2c(=O)n1C [Example 236, (S)-5-(4-chloro-2-fluorophenyl)-2,3-dimethyl-7-(2-(6-(2,2,2-trifluoroethoxy)pyridin-3-yl)morpholino)pyrido[4,3-d]pyrimidin-4(3H)-one] | ++ (Emax>100 and ≤200) | 3 to 100 µM |
| COc1ccc([C@@H]2CN(c3cc4nc(C)n(C)c(=O)c4c(-c4ccc(Cl)cc4F)n3)CCO2)cc1 [Example 237, (R)-5-(4-chloro-2-fluorophenyl)-7-(2-(4-methoxyphenyl)morpholino)-2,3-dimethylpyrido[4,3-d]pyrimidin-4(3H)-one] | ++ (Emax>100 and ≤200) | 0.05 to 0.5 µM |
| COc1cccc([C@@H]2CN(c3cc4nc(C)n(C)c(=O)c4c(-c4ccc(Cl)cc4F)n3)CCO2)c1 [Example 238, (R)-5-(4-chloro-2-fluorophenyl)-7-(2-(3-methoxyphenyl)morpholino)-2,3-dimethylpyrido[4,3-d]pyrimidin-4(3H)-one] | ++++ (Emax>300) | 0.05 to 0.5 µM |
| Cc1nc2cc(N3CCO[C@H](c4cccc(Cl)c4)C3)nc(-c3ccc(Cl)cc3F)c2c(=O)n1C [Example 239, (R)-5-(4-chloro-2-fluorophenyl)-7-(2-(3-chlorophenyl)morpholino)-2,3-dimethylpyrido[4,3-d]pyrimidin-4(3H)-one] | +++ (Emax>200 and ≤300) | 3 to 100 µM |
| Cc1nc2cc(N3CCO[C@H](c4ccsc4)C3)nc(-c3ccc(Cl)cc3F)c2c(=O)n1C [Example 240, (R)-5-(4-chloro-2-fluorophenyl)-2,3-dimethyl-7-(2-(thiophen-3-yl)morpholino)pyrido[4,3-d]pyrimidin-4(3H)-one] | ++++ (Emax>300) | 3 to 100 µM |
| CCc1nnc([C@@H]2CN(c3cc4nc(C)n(C)c(=O)c4c(-c4ccc(Cl)cc4F)n3)CCO2)[nH]1 [Example 241, (S)-5-(4-chloro-2-fluorophenyl)-7-(2-(5-ethyl-4H-1,2,4-triazol-3-yl)morpholino)-2,3-dimethylpyrido[4,3-d]pyrimidin-4(3H)-one] | +++ (Emax>200 and ≤300) | 3 to 100 µM |
| COc1cc([C@@H]2CN(c3cc4nc(C)n(C)c(=O)c4c(-c4ccc(Cl)cc4F)n3)CCO2)ccn1 [Example 243, (R)-5-(4-chloro-2-fluorophenyl)-7-(2-(2-methoxypyridin-4-yl)morpholino)-2,3-dimethylpyrido[4,3-d]pyrimidin-4(3H)-one] | ++++ (Emax>300) | < 0.05 µM |
| Cc1nc2cc(N3Cc4cccnc4C3)nc(-c3ccc(Cl)cc3F)c2c(=O)n1C [Example 247, 5-(4-chloro-2-fluorophenyl)-7-(5,7-dihydro-6H-pyrrolo[3,4-b]pyridin-6-yl)-2,3-dimethylpyrido [4,3-d]pyrimidin-4(3H)-one] | ++ (Emax>100 and ≤200) | 3 to 100 µM |
| Cc1nc2cc(N3CCc4ncccc4C3)nc(-c3ccc(Cl)cc3F)c2c(=O)n1C [Example 248, 5-(4-chloro-2-fluorophenyl)-7-(7,8-dihydro-1,6-naphthyridin-6(5H)-yl)-2,3-dimethylpyrido[4,3-d]pyrimidin-4(3H)-one] | +++ (Emax>200 and ≤300) | 3 to 100 µM |
| Cc1nc2cc(N3CCO[C@@H](c4cnn(C(F)F)c4)C3)nc(-c3ccc(Cl)cc3F)c2c(=O)n1C [Example 253, (S)-5-(4-chloro-2-fluorophenyl)-7-(2-(1-(difluoromethyl)-1H-pyrazol-4-yl)morpholino)-2,3-dimethylpyrido[4,3-d]pyrimidin-4(3H)-one] | ++++ (Emax>300) | < 0.05 µM |
| Cc1nc2cc(N3CC[C@H](c4ccncc4)C3)nc(-c3ccc(Cl)cc3F)c2c(=O)n1C [Example 254, (R)-5-(4-chloro-2-fluorophenyl)-2,3-dimethyl-7-(3-(pyridin-4-yl)pyrrolidin-1-yl)pyrido[4,3-d]pyrimidin-4(3H)-one] | ++++ (Emax>300) | 3 to 100 µM |

More lines, now with the values ahead:

| Emax | EC50 | Structure (SMILES) |
| --- | --- | --- |
| +++ (Emax>200 and ≤300) | 3 to 100 µM | Cc1nc2cc(N3CCC[C@H](N4CCCC4)C3)nc(-c3ccc(Cl)cc3F)c2c(=O)n1C [Example 242, (S)-5-(4-chloro-2-fluorophenyl)-2,3-dimethyl-7-(3-(pyrrolidin-1-yl)piperidin-1-yl)pyrido[4,3-d]pyrimidin-4(3H)-one] |
| +++ (Emax>200 and ≤300) | 3 to 100 µM | Cc1nc2cc(N3CCC[C@@H](N(C)C)C3)nc(-c3ccc(Cl)cc3F)c2c(=O)n1C [Example 244, (R)-5-(4-chloro-2-fluorophenyl)-7-(3-(dimethylamino)piperidin-1-yl)-2,3-dimethylpyrido[4,3-d]pyrimidin-4(3H)-one] |
| ++ (Emax>100 and ≤200) | 3 to 100 µM | Cc1nc2cc(N3CCC[C@H](N4CCC4)C3)nc(-c3ccc(Cl)cc3F)c2c(=O)n1C [Example 245, (S)-7-(3-(azetidin-1-yl)piperidin-1-yl)-5-(4-chloro-2-fluorophenyl)-2,3-dimethylpyrido[4,3-d]pyrimidin-4(3H)-one] |
| +++ (Emax>200 and ≤300) | 3 to 100 µM | Cc1nc2cc(N3CCC[C@@H](N4CCC4)C3)nc(-c3ccc(Cl)cc3F)c2c(=O)n1C [Example 246, (R)-7-(3-(azetidin-1-yl)piperidin-1-yl)-5-(4-chloro-2-fluorophenyl)-2,3-dimethylpyrido[4,3-d]pyrimidin-4(3H)-one] |
| ++++ (Emax>300) | 0.5 to 3 µM | Cc1nc2cc(N3CCC(F)(F)[C@H](N4CCC4)C3)nc(-c3ccc(Cl)cc3F)c2c(=O)n1C [Example 249, (R)-7-(3-(azetidin-1-yl)-4,4-difluoropiperidin-1-yl)-5-(4-chloro-2-fluorophenyl)-2,3-dimethylpyrido[4,3-d]pyrimidin-4(3H)-one] |
| ++++ (Emax>300) | 3 to 100 µM | Cc1nc2cc(N3CCC(F)(F)[C@H](N(C)C)C3)nc(-c3ccc(Cl)cc3F)c2c(=O)n1C [Example 250, (R)-5-(4-chloro-2-fluorophenyl)-7-(3-(dimethylamino)-4,4-difluoropiperidin-1-yl)-2,3-dimethylpyrido[4,3-d]pyrimidin-4(3H)-one] |
| ++ (Emax>100 and ≤200) | 3 to 100 µM | Cc1nc2cc(N3CCC[C@@H](C4CNC4)C3)nc(-c3ccc(Cl)cc3F)c2c(=O)n1C [Example 251, (S)-7-(3-(azetidin-3-yl)piperidin-1-yl)-5-(4-chloro-2-fluorophenyl)-2,3-dimethylpyrido[4,3-d]pyrimidin-4(3H)-one] |
| +++ (Emax>200 and ≤300) | 3 to 100 µM | Cc1nc2cc(N3CCC[C@H](C4CN(C)C4)C3)nc(-c3ccc(Cl)cc3F)c2c(=O)n1C [Example 252, (R)-5-(4-chloro-2-fluorophenyl)-2,3-dimethyl-7-(3-(1-methylazetidin-3-yl)piperidin-1-yl)pyrido[4,3-d]pyrimidin-4(3H)-one] |
